Data: patent publication US12329745B2, “Methods and compositions for treating glucocorticoid excess” (Sparrow Pharmaceuticals, Inc., priority 2022, dated 2025)
Marks after values point to notes of the source that are not given here.

Assays:
C57BL/6 male mice = assay: Mitigation of corticosterone (CORT) adverse effects in mouse; format: in vivo; set-up: food consumption, group Mean: unit not given here
Experimental: A control group received no CORT or SPI-62. Body weight was assessed daily and food consumption twice weekly. Whole body muscle and fat amounts were measured at Days 0, 14, and 28 using an EchoMRI-130H body composition analyzer. Blood samples for fasting glucose and insulin were obtained at Days 1 (pre-dose), 15, 29, and 35. An open field test was conducted on Day 22. A grip strength test was performed on Day 28. After sacrifice on Day 36, gonadal, subcutaneous, retroperitoneal, and mesenteric fat, quadriceps, and tibialis anterior were dissected and weighed, and skin was formalin fixed and paraffin embedded.

HSD-1 = HSD-1 (Homo sapiens, UniProt P28845); settings: both, in vivo
[1] = 10 mg/kg QD + CORT, post-mortem Day 36

HSD-1, sequence (P28845 whole entry): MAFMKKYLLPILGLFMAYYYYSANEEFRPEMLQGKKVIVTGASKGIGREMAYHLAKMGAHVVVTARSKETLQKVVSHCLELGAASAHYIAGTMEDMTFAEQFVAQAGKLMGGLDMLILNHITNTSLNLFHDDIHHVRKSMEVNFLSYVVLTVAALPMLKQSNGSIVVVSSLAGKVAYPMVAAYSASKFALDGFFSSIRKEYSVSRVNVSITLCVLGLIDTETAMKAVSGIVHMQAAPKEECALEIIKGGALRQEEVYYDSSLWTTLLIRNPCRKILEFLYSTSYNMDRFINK

Cn1c(-c2ccc(C(N)=O)cc2F)nnc1C(C)(C)Oc1c(F)cc(Cl)cc1F [SPI-62, 4-(5-(2-(4-chloro-2,6-difluorophenoxy)propan-2-yl)-4-methyl-4H-1,2,4-triazol-3-yl)-3-fluorobenzamide]
Whole-body muscle content LSM (C57BL/6 male mice; 10 mg/kg QD + CORT, Day 28): 0.80^b
HOMA-IR LSM (C57BL/6 male mice; 10 mg/kg QD + CORT, Day 29): 1.88^ab mmol glucose/μU insulin
HOMA-IR LSM (C57BL/6 male mice; 10 mg/kg QD + CORT, Day 35): 2.28^b mmol glucose/μU insulin
Fat depot weight, Gonadal, Mean (C57BL/6 male mice; [1]): 8.44 mg/g body weight
Fat depot weight, Mesenteric, Mean (C57BL/6 male mice; [1]): 6.23 mg/g body weight
Fat depot weight, Retroperitoneal, Mean (C57BL/6 male mice; [1]): 2.40 mg/g body weight
Fat depot weight, Subcutaneous, Mean (C57BL/6 male mice; [1]): 3.35 mg/g body weight
Muscle weight, Quadriceps, Mean (C57BL/6 male mice; [1]): 5.33 mg/g body weight
Muscle weight, Tibialis anterior, Mean (C57BL/6 male mice; [1]): 2.14 mg/g body weight
body weight, group Mean (C57BL/6 male mice; 1 mpk QD + CORT, Baseline): 22.1 g
food consumption, group Mean (C57BL/6 male mice; 1 mpk QD + CORT, Day 4): 3.26
food consumption, group Mean (C57BL/6 male mice; 1 mpk QD + CORT, Day 8): 2.92
food consumption, group Mean (C57BL/6 male mice; 1 mpk QD + CORT, Day 11): 3.09
body weight, group Mean (C57BL/6 male mice; 1 mpk QD + CORT, Day 15): 21.9 g
food consumption, group Mean (C57BL/6 male mice; 1 mpk QD + CORT, Day 15): 3.04
food consumption, group Mean (C57BL/6 male mice; 1 mpk QD + CORT, Day 18): 2.91
food consumption, group Mean (C57BL/6 male mice; 1 mpk QD + CORT, Day 22): 3.23
food consumption, group Mean (C57BL/6 male mice; 1 mpk QD + CORT, Day 25): 3.74
body weight, group Mean (C57BL/6 male mice; 1 mpk QD + CORT, Day 29): 23.2 g
food consumption, group Mean (C57BL/6 male mice; 1 mpk QD + CORT, Day 29): 2.90
food consumption, group Mean (C57BL/6 male mice; 1 mpk QD + CORT, Day 32): 2.77
body weight, group Mean (C57BL/6 male mice; 1 mpk QD + CORT, Day 35): 23.8 g
food consumption, group Mean (C57BL/6 male mice; 1 mpk QD + CORT, Day 36): 3.13
body weight, group Mean (C57BL/6 male mice; 10 mpk BID + CORT, Baseline): 22.1 g
food consumption, group Mean (C57BL/6 male mice; 10 mpk BID + CORT, Day 4): 3.36
food consumption, group Mean (C57BL/6 male mice; 10 mpk BID + CORT, Day 8): 2.88
food consumption, group Mean (C57BL/6 male mice; 10 mpk BID + CORT, Day 11): 2.92
body weight, group Mean (C57BL/6 male mice; 10 mpk BID + CORT, Day 15): 21.5 g
food consumption, group Mean (C57BL/6 male mice; 10 mpk BID + CORT, Day 15): 2.74
food consumption, group Mean (C57BL/6 male mice; 10 mpk BID + CORT, Day 18): 3.36
food consumption, group Mean (C57BL/6 male mice; 10 mpk BID + CORT, Day 22): 2.89
food consumption, group Mean (C57BL/6 male mice; 10 mpk BID + CORT, Day 25): 3.13
body weight, group Mean (C57BL/6 male mice; 10 mpk BID + CORT, Day 29): 21.7 g
food consumption, group Mean (C57BL/6 male mice; 10 mpk BID + CORT, Day 29): 2.79
food consumption, group Mean (C57BL/6 male mice; 10 mpk BID + CORT, Day 32): 3.27
body weight, group Mean (C57BL/6 male mice; 10 mpk BID + CORT, Day 35): 21.8 g
food consumption, group Mean (C57BL/6 male mice; 10 mpk BID + CORT, Day 36): 2.83
body weight, group Mean (C57BL/6 male mice; 10 mpk QD + CORT, Baseline): 22 g
food consumption, group Mean (C57BL/6 male mice; 10 mpk QD + CORT, Day 4): 3.37
food consumption, group Mean (C57BL/6 male mice; 10 mpk QD + CORT, Day 8): 2.98
food consumption, group Mean (C57BL/6 male mice; 10 mpk QD + CORT, Day 11): 3.11
body weight, group Mean (C57BL/6 male mice; 10 mpk QD + CORT, Day 15): 21.4 g
food consumption, group Mean (C57BL/6 male mice; 10 mpk QD + CORT, Day 15): 2.91
food consumption, group Mean (C57BL/6 male mice; 10 mpk QD + CORT, Day 18): 3.08
food consumption, group Mean (C57BL/6 male mice; 10 mpk QD + CORT, Day 22): 3.15
food consumption, group Mean (C57BL/6 male mice; 10 mpk QD + CORT, Day 25): 3.50
body weight, group Mean (C57BL/6 male mice; 10 mpk QD + CORT, Day 29): 22.2 g
food consumption, group Mean (C57BL/6 male mice; 10 mpk QD + CORT, Day 29): 2.99
food consumption, group Mean (C57BL/6 male mice; 10 mpk QD + CORT, Day 32): 3.00
body weight, group Mean (C57BL/6 male mice; 10 mpk QD + CORT, Day 35): 22.8 g
food consumption, group Mean (C57BL/6 male mice; 10 mpk QD + CORT, Day 36): 3.24
CORT effects on dermal thickness and structure (C57BL/6 male mice; 35 days, FIG. 12): less prominent
effect in the open field test (C57BL/6 male mice; Day 22): No effect
CORT adverse effect of grip strength reduction (C57BL/6 male mice; Day 28): prevented
total target amount in the central compartment (RTOT) (HSD-1): 7.84 µM
